Each structure is given as a SMILES string.

The target of this experiment is FXR (Homo sapiens (Human), UniProt Q96RI1). Put plainly: transient human FXR/Gal4-luciferase reporter assay. In kind it is cell-based. The note with it: Gal4-hFXR fusion construct, HEK293 reporter cells; response relative to 8 μM GW-4064. In outline: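 HEK293 cells stably carrying a 5×Gal4 response element–firefly luciferase reporter were transiently transfected overnight with a Gal4 DBD–human FXR LBD fusion plasmid. Compound was added in DMSO and cells were incubated overnight at 37 °C, 5% CO2. Activity was read as Steady-Glo luminescence.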
Chain of FXR (Q96RI1 262-486): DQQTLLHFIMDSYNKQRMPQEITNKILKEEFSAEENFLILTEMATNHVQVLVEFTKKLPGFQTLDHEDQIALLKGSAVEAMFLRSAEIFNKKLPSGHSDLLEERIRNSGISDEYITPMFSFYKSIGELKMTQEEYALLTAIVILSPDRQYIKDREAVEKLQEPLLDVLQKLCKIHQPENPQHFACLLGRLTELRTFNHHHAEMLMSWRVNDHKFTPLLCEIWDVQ
On the technique in general: A reporter such as luciferase makes a cellular process visible.
For orientation: EC50 means the midpoint of the concentration-response curve. High values mean a need for much substance, low ones an effect from little substance. For the molecule `CCOc1ccc(-c2cncc(N(CC34CCC(c5nc(C6CC6)no5)(CC3)CC4)C(=O)C34CC(F)(C3)C4)c2)cc1` [Example 424, N-((4-(3-cyclopropyl-1,2,4-oxadiazol-5-yl)bicyclo[2.2.2]octan-1-yl)methyl)-N-(5-(4-ethoxyphenyl)pyridin-3-yl)-3-fluorobicyclo[1.1.1]pentane-1-carboxamide], the 50% effective concentration (EC50) turned out to be 483 nM.
The molecule `Cc1nc2ccc(-c3cncc(N(CC45CCC(c6nc(C7CC7)no6)(CC4)CC5)C(=O)C45CC(F)(C4)C5)c3)cc2s1` [Example 425, N-((4-(3-cyclopropyl-1,2,4-oxadiazol-5-yl)bicyclo[2.2.2]octan-1-yl)methyl)-3-fluoro-N-(5-(2-methylbenzo[d]thiazol-6-yl)pyridin-3-yl)bicyclo[1.1.1]pentane-1-carboxamide] returned an EC50 of 198 nM.
Molecule `CCOc1ccc(-c2cncc(N(CC34CCC(c5nc(C6CC6)no5)(CC3)CC4)C(=O)C34CC(F)(C3)C4)c2)cn1` [Example 426, N-((4-(3-cyclopropyl-1,2,4-oxadiazol-5-yl)bicyclo[2.2.2]octan-1-yl)methyl)-N-(6′-ethoxy-[3,3′-bipyridin]-5-yl)-3-fluorobicyclo[1.1.1]pentane-1-carboxamide] yielded a concentration giving a half-maximal response (EC50) of 417 nM.
For the molecule `CS(=O)(=O)Nc1ccc(-c2cncc(N(CC34CCC(c5nc(C6CC6)no5)(CC3)CC4)C(=O)C34CC(F)(C3)C4)c2)cc1` [Example 427], the half-maximal effective concentration (EC50) stood at 671 nM.
On to `O=C(N(CC12CCC(c3nc(C4CC4)no3)(CC1)CC2)c1cncc(-c2cnc(C(F)(F)F)nc2)c1)C12CC(F)(C1)C2` [Example 428, N-((4-(3-cyclopropyl-1,2,4-oxadiazol-5-yl)bicyclo[2.2.2]octan-1-yl)methyl)-3-fluoro-N-(5-(2-(trifluoromethyl)pyrimidin-5-yl)pyridin-3-yl)bicyclo[1.1.1]pentane-1-carboxamide], for which it took 3550 nM to reach a half-maximal effect (EC50).
Take `CCOc1ncc(-c2cccc(N(CC34CCC(c5noc(C(C)C)n5)(CC3)CC4)C(=O)C34CC(F)(C3)C4)c2)cn1` [Example 429, N-(3-(2-ethoxypyrimidin-5-yl)phenyl)-3-fluoro-N-((4-(5-isopropyl-1,2,4-oxadiazol-3-yl)bicyclo[2.2.2]octan-1-yl)methyl)bicyclo[1.1.1]pentane-1-carboxamide]: the EC50 amounted to 46 nM.
Molecule `CC(C)c1nc(C23CCC(CN(C(=O)C45CC(F)(C4)C5)c4cccc(-c5ccc(NS(C)(=O)=O)cc5)c4)(CC2)CC3)no1` [Example 430, 3-fluoro-N-((4-(5-isopropyl-1,2,4-oxadiazol-3-yl)bicyclo[2.2.2]octan-1-yl)methyl)-N-(4′-(methylsulfonamido)-[1,1′-biphenyl]-3-yl)bicyclo[1.1.1]pentane-1-carboxamide] had an EC50 of 40 nM.
In the case of `CCOc1ccc(-c2cccc(N(CC34CCC(c5noc(C(C)C)n5)(CC3)CC4)C(=O)C34CC(F)(C3)C4)c2)cc1` [Example 431, N-(4′-ethoxy-[1,1′-biphenyl]-3-yl)-3-fluoro-N-((4-(5-isopropyl-1,2,4-oxadiazol-3-yl)bicyclo[2.2.2]octan-1-yl)methyl)bicyclo[1.1.1]pentane-1-carboxamide] it was 25 nM; in that of `CCOc1ccc(-c2cccc(N(CC34CCC(c5noc(C(C)C)n5)(CC3)CC4)C(=O)C34CC(F)(C3)C4)c2)cn1` [Example 432, N-(3-(6-ethoxypyridin-3-yl)phenyl)-3-fluoro-N-((4-(5-isopropyl-1,2,4-oxadiazol-3-yl)bicyclo[2.2.2]octan-1-yl)methyl)bicyclo[1.1.1]pentane-1-carboxamide], 51 nM.
Next, `Cc1nc2ccc(-c3cccc(N(CC45CCC(c6noc(C(C)C)n6)(CC4)CC5)C(=O)C45CC(F)(C4)C5)c3)cc2s1` [Example 433, 3-fluoro-N-((4-(5-isopropyl-1,2,4-oxadiazol-3-yl)bicyclo[2.2.2]octan-1-yl)methyl)-N-(3-(2-methylbenzo[d]thiazol-6-yl)phenyl)bicyclo[1.1.1]pentane-1-carboxamide]: 37 nM.
Next, `CC(C)c1nc(C23CCC(CN(C(=O)C45CC(F)(C4)C5)c4cccc(-c5cnc(C6CC6)nc5)c4)(CC2)CC3)no1` [Example 434, N-(3-(2-cyclopropylpyrimidin-5-yl)phenyl)-3-fluoro-N-((4-(5-isopropyl-1,2,4-oxadiazol-3-yl)bicyclo[2.2.2]octan-1-yl)methyl)bicyclo[1.1.1]pentane-1-carboxamide]: 57 nM.
Regarding `CC(C)c1nc(C23CCC(CN(C(=O)C45CC(F)(C4)C5)c4cccc(-c5cnc(C(F)(F)F)nc5)c4)(CC2)CC3)no1` [Example 435, 3-fluoro-N-((4-(5-isopropyl-1,2,4-oxadiazol-3-yl)bicyclo[2.2.2]octan-1-yl)methyl)-N-(3-(2-(trifluoromethyl)pyrimidin-5-yl)phenyl)bicyclo[1.1.1]pentane-1-carboxamide], the midpoint of the response, the EC50, lay at 240 nM.
As to `CC(C)c1nc(C23CCC(CN(C(=O)C45CC(F)(C4)C5)c4cccc(-c5ccc(OC(F)F)cc5)c4)(CC2)CC3)no1` [Example 436, N-(4′-(difluoromethoxy)-[1,1′-biphenyl]-3-yl)-3-fluoro-N-((4-(5-isopropyl-1,2,4-oxadiazol-3-yl)bicyclo[2.2.2]octan-1-yl)methyl)bicyclo[1.1.1]pentane-1-carboxamide], the half-maximal effective concentration (EC50) was found to be 46 nM.
Regarding `CCOc1ncc(-c2cccc(N(CC34CCC(c5noc(C(C)(C)C)n5)(CC3)CC4)C(=O)C34CC(F)(C3)C4)c2)cn1` [Example 437, N-((4-(5-(tert-butyl)-1,2,4-oxadiazol-3-yl)bicyclo[2.2.2]octan-1-yl)methyl)-N-(3-(2-ethoxypyrimidin-5-yl)phenyl)-3-fluorobicyclo[1.1.1]pentane-1-carboxamide], the EC50 is 39 nM.
`CC(C)(C)c1nc(C23CCC(CN(C(=O)C45CC(F)(C4)C5)c4cccc(-c5ccc(NS(C)(=O)=O)cc5)c4)(CC2)CC3)no1` [Example 438, N-((4-(5-(tert-butyl)-1,2,4-oxadiazol-3-yl)bicyclo[2.2.2]octan-1-yl)methyl)-3-fluoro-N-(4′-(methylsulfonamido)-[1,1′-biphenyl]-3-yl)bicyclo[1.1.1]pentane-1-carboxamide]: it took 46 nM to reach a half-maximal effect (EC50).
Next, `CCOc1ccc(-c2cccc(N(CC34CCC(c5noc(C(C)(C)C)n5)(CC3)CC4)C(=O)C34CC(F)(C3)C4)c2)cc1` [Example 439, N-((4-(5-(tert-butyl)-1,2,4-oxadiazol-3-yl)bicyclo[2.2.2]octan-1-yl)methyl)-N-(4′-ethoxy-[1,1′-biphenyl]-3-yl)-3-fluorobicyclo[1.1.1]pentane-1-carboxamide]: 70 nM; `Cc1nc2ccc(-c3cccc(N(CC45CCC(c6noc(C(C)(C)C)n6)(CC4)CC5)C(=O)C45CC(F)(C4)C5)c3)cc2s1` [Example 441, N-((4-(5-(tert-butyl)-1,2,4-oxadiazol-3-yl)bicyclo[2.2.2]octan-1-yl)methyl)-3-fluoro-N-(3-(2-methylbenzo[d]thiazol-6-yl)phenyl)bicyclo[1.1.1]pentane-1-carboxamide]: 68 nM; `CC(C)(C)c1nc(C23CCC(CN(C(=O)C45CC(F)(C4)C5)c4cccc(-c5cnc(C6CC6)nc5)c4)(CC2)CC3)no1` [Example 442, N-((4-(5-(tert-butyl)-1,2,4-oxadiazol-3-yl)bicyclo[2.2.2]octan-1-yl)methyl)-N-(3-(2-cyclopropylpyrimidin-5-yl)phenyl)-3-fluorobicyclo[1.1.1]pentane-1-carboxamide]: 71 nM.
`CC(C)(C)c1nc(C23CCC(CN(C(=O)C45CC(F)(C4)C5)c4cccc(-c5cnc(C(F)(F)F)nc5)c4)(CC2)CC3)no1` [Example 443, N-((4-(5-(tert-butyl)-1,2,4-oxadiazol-3-yl)bicyclo[2.2.2]octan-1-yl)methyl)-3-fluoro-N-(3-(2-(trifluoromethyl)pyrimidin-5-yl)phenyl)bicyclo[1.1.1]pentane-1-carboxamide] gave a concentration for a half-maximal effect (EC50) of 357 nM.
As for `CC(C)(C)c1nc(C23CCC(CN(C(=O)C45CC(F)(C4)C5)c4cccc(-c5ccc(OC(F)F)cc5)c4)(CC2)CC3)no1` [Example 444, N-((4-(5-(tert-butyl)-1,2,4-oxadiazol-3-yl)bicyclo[2.2.2]octan-1-yl)methyl)-N-(4′-(difluoromethoxy)-[1,1′-biphenyl]-3-yl)-3-fluorobicyclo[1.1.1]pentane-1-carboxamide], the EC50 was determined as 61 nM.
Next, `CC(C)(C)c1nc(C23CCC(CN(C(=O)C45CC(F)(C4)C5)c4cccc(-c5ccc(C(F)(F)F)cc5)c4)(CC2)CC3)no1` [Example 445, N-((4-(5-(tert-butyl)-1,2,4-oxadiazol-3-yl)bicyclo[2.2.2]octan-1-yl)methyl)-3-fluoro-N-(4′-(trifluoromethyl)-[1,1′-biphenyl]-3-yl)bicyclo[1.1.1]pentane-1-carboxamide]: 719 nM; `CC(C)(C)c1nc(C23CCC(CN(C(=O)C45CC(F)(C4)C5)c4cccc(-c5ccc(NS(=O)(=O)C(F)(F)F)cc5)c4)(CC2)CC3)no1` [Example 446, N-((4-(5-(tert-butyl)-1,2,4-oxadiazol-3-yl)bicyclo[2.2.2]octan-1-yl)methyl)-3-fluoro-N-(4′-((trifluoromethyl)sulfonamido)-[1,1′-biphenyl]-3-yl)bicyclo[1.1.1]pentane-1-carboxamide]: 225 nM; `CC(C)(C)c1nc(C23CCC(CN(C(=O)C45CC(F)(C4)C5)c4cccc(-c5ccc6[nH]c(=O)oc6c5)c4)(CC2)CC3)no1` [Example 447, N-((4-(5-(tert-butyl)-1,2,4-oxadiazol-3-yl)bicyclo[2.2.2]octan-1-yl)methyl)-3-fluoro-N-(3-(2-oxo-2,3-dihydrobenzo[d]oxazol-6-yl)phenyl)bicyclo[1.1.1]pentane-1-carboxamide]: 87 nM.

The values above are taken from patent publication US11254663B2 (BRISTOL-MYERS SQUIBB COMPANY, priority 2019, dated 2022).
